Counter-ions that a name gives are not always drawn.
How the values were obtained:
[1] = biological target: T1, 5-HT reuptake (5-HT transporter) (Rattus norvegicus, UniProt P31652); assay: Inhibition of 5-HT reuptake in rat brain synaptosome (3H-5-HT uptake); type: biochemical; conditions: 10 μM, read-out: 5-HT reuptake percent inhibition
T1 construct: from tissue; host or cells: Wistar rat brain (procerebrum; crude synaptosomal supernatant)
Procedure: (§1) All the target compounds were evaluated for their inhibitory activity against the reuptake of 5-HT and NE at the cellular level. Rat brain tissue was used for the uptake test, which included ^3H-5-HT and ^3H-NE [15]. 1-[7,8-^3H]-Noradrenaline and 5-hydroxy-[^3H]-tryptamine trifluoroacetate were obtained from Amersham Corporation.
(§2) Adult male Wistar rats were used. Animals were killed by decapitation and the whole brain, with the exception of the brainstem and cerebellum, was quickly removed. The procerebrum region was prepared, weighed, and homogenized in 10 volumes of ice-cold 0.32 mol/L sucrose solution using a glass homogenizer. The homogenate was centrifuged at 1000× g and 4 °C for 10 min. The supernatant was decanted and used for the uptake experiments. […] For each assay, three tubes were incubated with the vehicle (20 µL) at 0 °C in an ice bath. After incubation, the tubes were immediately filtered with a cell harvester. The fiberglass filter membrane was washed three times with ice-cold saline, placed in a scintillation vial, and counted in liquid scintillation cocktail (4 mL). Active uptake was the difference between the counts per minute at 37 and 0 °C. The percent inhibition at each drug concentration was the mean of three measurements.

[2] = biological target: T2, NE reuptake (NE transporter) (Rattus norvegicus, UniProt Q63380); assay: Inhibition of NE reuptake in rat brain synaptosome (3H-NE uptake); type: biochemical; conditions: 10 μM, read-out: NE reuptake percent inhibition
T2 construct: from tissue; host or cells: Wistar rat brain (procerebrum; crude synaptosomal supernatant)
Procedure: as §1, §2

T1 sequence (P31652 whole entry): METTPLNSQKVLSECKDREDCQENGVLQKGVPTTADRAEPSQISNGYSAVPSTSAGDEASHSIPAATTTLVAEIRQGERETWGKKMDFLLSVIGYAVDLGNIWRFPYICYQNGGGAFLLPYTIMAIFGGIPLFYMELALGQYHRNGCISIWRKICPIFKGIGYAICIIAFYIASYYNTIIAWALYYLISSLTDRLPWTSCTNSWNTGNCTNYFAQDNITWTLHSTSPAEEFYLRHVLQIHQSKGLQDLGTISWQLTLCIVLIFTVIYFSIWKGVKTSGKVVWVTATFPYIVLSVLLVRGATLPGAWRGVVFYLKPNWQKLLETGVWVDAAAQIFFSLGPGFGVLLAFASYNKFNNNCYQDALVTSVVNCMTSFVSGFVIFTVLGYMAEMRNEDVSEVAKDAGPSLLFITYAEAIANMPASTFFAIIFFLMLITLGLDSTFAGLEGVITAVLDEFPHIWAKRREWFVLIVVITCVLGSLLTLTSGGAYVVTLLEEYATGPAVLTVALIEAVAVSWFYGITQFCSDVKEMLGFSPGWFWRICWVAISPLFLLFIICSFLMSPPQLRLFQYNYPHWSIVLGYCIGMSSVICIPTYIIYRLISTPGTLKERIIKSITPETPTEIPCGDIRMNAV
T2 sequence (Q63380 1-617): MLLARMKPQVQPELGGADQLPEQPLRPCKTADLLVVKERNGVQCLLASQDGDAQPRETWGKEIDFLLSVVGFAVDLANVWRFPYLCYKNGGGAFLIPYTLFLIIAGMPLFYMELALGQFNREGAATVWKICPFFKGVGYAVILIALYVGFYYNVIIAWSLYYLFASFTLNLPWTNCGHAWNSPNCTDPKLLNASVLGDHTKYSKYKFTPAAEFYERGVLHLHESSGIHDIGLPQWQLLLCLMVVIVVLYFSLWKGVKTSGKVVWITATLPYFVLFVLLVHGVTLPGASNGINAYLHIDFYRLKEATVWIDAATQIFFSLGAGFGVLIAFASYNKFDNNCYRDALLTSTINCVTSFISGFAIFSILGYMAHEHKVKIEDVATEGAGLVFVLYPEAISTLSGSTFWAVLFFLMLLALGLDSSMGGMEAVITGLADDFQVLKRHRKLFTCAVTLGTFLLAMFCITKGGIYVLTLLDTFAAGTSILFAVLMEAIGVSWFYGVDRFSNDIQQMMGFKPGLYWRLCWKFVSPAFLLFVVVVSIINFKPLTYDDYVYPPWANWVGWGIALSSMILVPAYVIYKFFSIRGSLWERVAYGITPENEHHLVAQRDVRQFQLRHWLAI

Row | SMILES | melting point [°C] | inhibition at 10 µM [1] [%] | inhibition at 10 µM [2] [%]
1 | O=[N+]([O-])c1ccc(/C(=N\Cc2ccccc2)N2CCNCC2)cc1 (as salt: hydrochloride) [Compound I-2, (E)-N-((4-Nitrophenyl)(piperazin-1-yl)methylene)-1-phenylmethanaminehydrochloride] | 230 to 231 |  | 
2 | Clc1ccccc1/C(=N\Cc1ccccc1)N1CCNCC1 (as salt: hydrochloride) [Compound I-3, (E)-N-((2-Chlorophenyl)(piperazin-1-yl)methylene)-1-phenylmethanaminehydrochloride] | 142 to 144 |  | 
3 | Clc1cccc(/C(=N\Cc2ccccc2)N2CCNCC2)c1 (as salt: hydrochloride) [Compound I-4, (E)-N-((3-Chlorophenyl)(piperazin-1-yl)methylene)-1-phenylmethanaminehydrochloride] | 235 to 237 |  | 
4 | Clc1ccc(/C(=N\Cc2ccccc2)N2CCNCC2)cc1 (as salt: hydrochloride) [Compound I-5, (E)-N-((4-Chlorophenyl)(piperazin-1-yl)methylene)-1-phenylmethanaminehydrochloride] | 182 to 184 |  | 
5 | Fc1ccc(/C(=N\Cc2ccccc2)N2CCNCC2)cc1 (as salt: hydrochloride) [Compound I-6, (E)-N-((4-Fluorophenyl)(piperazin-1-yl)methylene)-1-phenylmethanaminehydrochloride] | 220 to 222 |  | 
6 | O=[N+]([O-])c1ccc(/C(=N\Cc2ccccc2)N2CCNCC2)cc1 [Compound I-2, (E)-N-((4-Nitrophenyl)(piperazin-1-yl)methylene)-1-phenylmethanaminehydrochloride] |  | 38 | 66
7 | Clc1ccccc1/C(=N\Cc1ccccc1)N1CCNCC1 [Compound I-3, (E)-N-((2-Chlorophenyl)(piperazin-1-yl)methylene)-1-phenylmethanaminehydrochloride] |  | 48 | 65
8 | Clc1cccc(/C(=N\Cc2ccccc2)N2CCNCC2)c1 [Compound I-4, (E)-N-((3-Chlorophenyl)(piperazin-1-yl)methylene)-1-phenylmethanaminehydrochloride] |  | 58 | 63
9 | Clc1ccc(/C(=N\Cc2ccccc2)N2CCNCC2)cc1 [Compound I-5, (E)-N-((4-Chlorophenyl)(piperazin-1-yl)methylene)-1-phenylmethanaminehydrochloride] |  | 47 | 57
10 | Fc1ccc(/C(=N\Cc2ccccc2)N2CCNCC2)cc1 [Compound I-6, (E)-N-((4-Fluorophenyl)(piperazin-1-yl)methylene)-1-phenylmethanaminehydrochloride] |  | 17 | 39
11 | Fc1ccccc1/C(=N\Cc1ccccc1)N1CCNCC1 [Compound I-7, (E)-N-((2-Fluorophenyl)(piperazin-1-yl)methylene)-1-phenylmethanaminehydrochloride] |  | 38 | 35
12 | N#Cc1ccc(/C(=N\Cc2ccccc2)N2CCNCC2)cc1 [Compound I-8, (E)-4-((Benzylimino)(piperazin-1-yl)methyl)benzonitrilehydrochloride] |  | 54 | 67
13 | N#Cc1cccc(/C(=N\Cc2ccccc2)N2CCNCC2)c1 [Compound I-9, (E)-3-((Benzylimino)(piperazin-1-yl)methyl)benzonitrilehydrochloride] |  | 65 | 51
14 | Cc1ccc(/C(=N\Cc2ccccc2)N2CCNCC2)cc1 [Compound I-10, (E)-1-Phenyl-N-(piperazin-1-yl(p-tolyl)methylene)methanaminehydrochloride] |  | 61 | 47
15 | O=[N+]([O-])c1ccc(/C(=N\Cc2ccccc2)N2CCNCC2)c(Cl)c1 [Compound I-11, (E)-N-((2-Chloro-4-nitrophenyl)(piperazin-1-yl)methylene)-1-phenylmethanaminehydrochloride] |  | 50 | 49
16 | O=[N+]([O-])c1ccc(/C(=N\Cc2ccc(Cl)cc2)N2CCNCC2)cc1 [Compound I-12, (E)-1-(4-Chlorophenyl)-N-((4-nitrophenyl)(piperazin-1-yl)methylene)methanaminehydrochloride] |  | 51 | 81
17 | Clc1ccc(C/N=C(\c2ccccc2Cl)N2CCNCC2)cc1 [Compound I-13, (E)-1-(4-Chlorophenyl)-N-((2-chlorophenyl)(piperazin-1-yl)methylene)methanaminehydrochloride] |  | 67 | 84

Row | SMILES | melting point [°C] | inhibition at 10 µM [1] [%] | inhibition at 10 µM [2] [%]
18 | Clc1ccc(C/N=C(\c2cccc(Cl)c2)N2CCNCC2)cc1 [Compound I-14, (E)-1-(4-Chlorophenyl)-N-((3-chlorophenyl)(piperazin-1-yl)methylene)methanaminehydrochloride] |  | 76 | 60
19 | Clc1ccc(C/N=C(\c2ccc(Cl)cc2)N2CCNCC2)cc1 [Compound I-15, (E)-1-(4-Chlorophenyl)-N-((4-chlorophenyl)(piperazin-1-yl)methylene)methanaminehydrochloride] |  | 48 | 68
20 | Fc1ccc(/C(=N\Cc2ccc(Cl)cc2)N2CCNCC2)cc1 [Compound I-16, (E)-1-(4-Chlorophenyl)-N-((4-fluorophenyl)(piperazin-1-yl)methylene)methanaminehydrochloride] |  | 45 | 26
21 | Fc1ccccc1/C(=N\Cc1ccc(Cl)cc1)N1CCNCC1 [Compound I-17, (E)-1-(4-Chlorophenyl)-N-((2-fluorophenyl)(piperazin-1-yl)methylene)methanaminehydrochloride] |  | 43 | 27
22 | N#Cc1ccc(/C(=N\Cc2ccc(Cl)cc2)N2CCNCC2)cc1 [Compound I-18, (E)-1-(4-Chlorophenyl)-N-((4-cyanophenyl)(piperazin-1-yl)methylene)methanaminehydrochloride] |  | 75 | 63
23 | Cc1ccc(/C(=N\Cc2ccc(Cl)cc2)N2CCNCC2)cc1 [Compound I-20, (E)-1-(4-Chlorophenyl)-N-(piperazin-1-yl(p-tolyl)methylene)methanaminehydrochloride] |  | 72 | 35
24 | COc1ccc(C/N=C(\c2ccc([N+](=O)[O-])cc2)N2CCNCC2)cc1 [Compound I-21, (E)-1-(4-Methoxyphenyl)-N-((4-nitrophenyl)(piperazin-1-yl)methylene)methanaminehydrochloride] |  | 34 | 57
25 | c1ccc(/C(=N\Cc2cccc3ccccc23)N2CCNCC2)cc1 [II-1, (E)-1-(Naphthalen-1-yl)-N-(phenyl(piperazin-1-yl)methylene)methanaminehydrochloride] |  | 80 | 67
26 | O=[N+]([O-])c1ccc(/C(=N\Cc2cccc3ccccc23)N2CCNCC2)cc1 [II-2, (E)-1-(Naphthalen-1-yl)-N-((4-nitrophenyl)(piperazin-1-yl)methylene)methanaminehydrochloride] |  | 57 | 52
27 | Fc1ccc(/C(=N\Cc2cccc3ccccc23)N2CCNCC2)cc1 [II-3, (E)-N-((4-Fluorophenyl)(piperazin-1-yl)methylene)-1-(naphthalen-1-yl)methanaminehydrochloride] |  | 84 | 76
28 | Clc1cccc(/C(=N\Cc2cccc3ccccc23)N2CCNCC2)c1 [II-6, (E)-N-((3-Chlorophenyl)(piperazin-1-yl)methylene)-1-(naphthalen-1-yl)methanaminehydrochloride] |  | 65 | 75
29 | Clc1ccc(/C(=N\Cc2cccc3ccccc23)N2CCNCC2)cc1 [II-7, (E)-N-((4-Chlorophenyl)(piperazin-1-yl)methylene)-1-(naphthalen-1-yl)methanaminehydrochloride] |  | 62 | 59
30 | N#Cc1ccc(/C(=N\Cc2cccc3ccccc23)N2CCNCC2)cc1 [II-8, (E)-4-(((Naphthalen-1-ylmethyl)imino)(piperazin-1-yl)methyl)benzonitrilehydrochloride] |  | 70 | 46
31 | N#Cc1cccc(/C(=N\Cc2cccc3ccccc23)N2CCNCC2)c1 [II-9, (E)-3-(((Naphthalen-1-ylmethyl)imino)(piperazin-1-yl)methyl)benzonitrilehydrochloride] |  | 88 | 54
32 | Cc1ccc(/C(=N\Cc2cccc3ccccc23)N2CCNCC2)cc1 [II-10, (E)-1-(Naphthalen-1-yl)-N-(piperazin-1-yl(p-tolyl)methylene)methanaminehydrochloride] |  | 82 | 63
33 | O=[N+]([O-])c1cccc2c(/C(=N\Cc3ccccc3)N3CCNCC3)cccc12 [III-1, (E)-N-((5-Nitronaphthalen-1-yl)(piperazin-1-yl)methylene)-1-phenylmethanaminehydrochloride] |  | 73 | 66
